Data on one molecule can be found in patent US8673930B2, “Pyrimidylaminobenzamide derivatives for systemic mastocytosis” (Novartis AG, priority 2005, dated 2014).

Series [1] relates to systemic mastocytosis (SM) patients. Nature of the series: Phase II open-label study in SM patients. Format: in vivo, human. As to conditions: 400 mg orally twice daily, first 23 pts, preliminary data. How it is done:
A Phase II, open-label study was designed to evaluate the safety and efficacy of Compound (II) administered orally 400 mg twice daily. SM patients meeting specific disease criteria and with a clinical indication for treatment were enrolled. The results are based on preliminary data for the first 23 pts in this study. Results: The median age was 49 (range 33-78) yrs and the median time from diagnosis of SM was 27 (range 1 to 292) months. […] The median exposure to Compound (II) was 144 days. Treatment is ongoing for 18 (78%) pts; 5 (22%) discontinued, 3 (13%) for adverse events and 2 (9%) withdrew consent. Three (13%) responses were reported (2 incomplete remission and 1 minor response), based on serum tryptase, bone marrow mast cell counts and improvement of clinical symptoms.

Series [2] deals with GIST882 cells. Description: GIST882 cell proliferation assay (ATPLite luminescent ATP detection). As to conditions: Homo sapiens; GIST882 cells (KIT K-642-E), 70 h incubation, mean value; read-out: mean IC50, inhibition of proliferation of GIST882 cells. Format: cell-based. Here is the method: The effects of compounds on viability and proliferation of the cells is determined using the luminescent ATP Detection assay kit ATPLite™ from Perkin Elmer Life Sciences (Cat. No: 6016947) according to the instructions of the suppliers. This assay system is based on the production of light (luminescence) caused by the reaction of ATP with added luciferase and D-luciferin.
GIST882, is a human gastrointestinal stromal tumor (GIST) cell line expressing an activating KIT mutation (exon 13, K-642-E) (Tuveson D A, Willis N A, Jacks T, Griffin J D, Singer S, Fletcher C D, Fletcher J A, Demetri G D, STI571 inactivation of the gastrointestinal stromal tumor c-KIT oncoprotein: biological and clinical implications, Oncogene, 2001 Aug. 16; 20(36):5054-8). The GIST882 cells are cultivated in RPMI 1640 (Invitromex, Cat. No: L0501), supplemented with 15% FCS, and 2 mM glutamine (Gibco). […]
GIST882 cells are seeded into black 96-well tissue culture plates (Packard) at a density of 10000 cells per well in 50 μL complete medium and incubated for one day in order to allow for attachment of the cells. […] Subsequently, 50 μL substrate solution (luciferase and D-luciferin) is added and after 5 min shaking and 10 min dark-adaptation of the plates, light emission was measured with a Packard TopCount. […]
On the technique in general: Cellular ATP, detected with luciferase, serves as a proxy for viable cell number.

In the case of `Cc1cn(-c2cc(NC(=O)c3ccc(C)c(Nc4nccc(-c5cccnc5)n4)c3)cc(C(F)(F)F)c2)cn1` [Compound (II), 4-methyl-3-[[4-(3-pyridinyl)-2-pyrimidinyl]amino]-N-[5-(4-methyl-1H-imidazol-1-yl)-3-(trifluoromethyl)phenyl]benzamide], the “discontinued for adverse events” value in series [1] (median exposure 144 days) is 13%. For the same molecule, the “safety and tolerability in pts with SM” value in series [1] was “acceptable safety and tolerability profile”. Besides, the “responses (based on serum tryptase, bone marrow mast cell counts and improvement of clinical symptoms)” value in series [1] (2 incomplete remission and 1 minor response) came to 13%. Further, in series [2], the IC50 was less than 200 nM.
